# Measured values from patent publication US20260335282A1, “NOVEL 3-ARYLIDENE-2-INDOLINONE DERIVATIVES FOR THERAPEUTIC USE” (ISTANBUL UNIVERSITESI REKTORLUGU, priority 2022, published 2026).
# pIC50: −log10 of the molar value. Values joined by “and” are separate entries in the source; they are usually repeats but may differ in a detail not shown here. Equal entries are not always repeated.
# Tests used:
# Assay type in all cases: cell-based, human
# [1] = test system: MCF-7 cells; experiment: MTT cytotoxicity, breast cancer cells MCF-7; conditions: MTT
# Method in brief: (§1)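 Read-out is MTT formazan absorbance at 570 nm with 630 nm reference, after 4 h with 5 mg/ml MTT and DMSO solubilisation. Treatment at 0.1, 1, 5 and 10 μM lasted 48 and/or 72 h; viability is relative to DMSO-matched controls, and IC50 values derive from dose-response curves.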
# [2] = test system: A549 cells; experiment: MTT cytotoxicity, lung cancer cells A549
# Method in brief: as §1
# [3] = test system: MCF-10F/Beas2b cells; experiment: MTT cytotoxicity, healthy cells MCF-10F/Beas2b; conditions: cancer line not given; for Selectivite Index, MCF-10F/Beas2b (Table 2): MCF-10F/Beas2b vs colon or pancreas cancer cells; for Selectivite Index (SI), MCF-10F/Beas2b (Table 1): MCF-10F/Beas2b vs breast or kidney cancer cells
# Method in brief: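 Cells seeded at 5000 per well were exposed next day to compounds at 0.1, 1, 5 and 10 μM for 48 and/or 72 h. MTT (5 mg/ml) was added for 4 h, formazan dissolved in DMSO, and absorbance read at 570 nm against 630 nm. IC50 came from dose-response curves of % viability versus DMSO controls.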
# [4] = test system: HUVEC cells; experiment: MTT cytotoxicity, healthy cells HUVEC; conditions: for Selectivite Index, HUVEC (Table 2): HUVEC vs colon or pancreas cancer cells; for Selectivite Index, HUVEC (Table 2) / Selectivite Index (SI), HUVEC (Table 1): cancer line not given; for pIC50: MTT; for Selectivite Index (SI), HUVEC (Table 1): HUVEC vs breast or kidney cancer cells
# Method in brief: as §1
# [5] = test system: MIAPaCa-2 cells; experiment: Apoptosis/necrosis detection, Annexin V/PI flow cytometry, MiaPaca-2; conditions: for necrosis compared to control: MiaPaca-2; for apoptosis (early and late) compared to control: MiaPaca-2, IC50 values
# Method: After incubation with 2-indolinone compounds (IC50 μM concentration; 48 and/or 72 hours), cells are washed twice with PBS and the cell pellet is suspended in Annexin V binding buffer. After this incubation, cells are incubated with FITC-conjugated Annexin V and propidium iodine staining solution for 15 minutes in the dark and at room temperature. Then, cells are analyzed by flow cytometry (Beckman coulter, Navios) (Wlodkowic, D., Skommer, J, Darzynkiewicz, Z. 2009. Flow cytometry-based apoptosis detection, Methods Mol Biol., 559, 1-14).
# [6] = no * mark (incubation time not specified)
Compound,"pIC50 [1, 6]","pIC50 [2, 6]","Selectivite Index, MCF-10F/Beas2b (Table 2) [3]","Selectivite Index, HUVEC (Table 2) [4]","pIC50 [4, 6]",necrosis compared to control [5],apoptosis (early and late) compared to control [5],"pIC50 ([1]; Homo sapiens, MCF7, no * mark (incubation time not given))","pIC50 ([2]; Homo sapiens, A549, no * mark (incubation time not given))","Selectivite Index (SI), MCF-10F/Beas2b (Table 1) [3]","Selectivite Index (SI), HUVEC (Table 1) [4]","pIC50 ([4]; Homo sapiens, HUVEC, no * mark (incubation time not given))"
O=C1/C(=C\c2c[nH]c3ccccc23)c2ccccc2N1Cc1ccccc1 [Y1],5.20,5.01,> 23.25,6.60,5.55,did not cause necrosis,increase in apoptosis at IC50 values was statistically significant,–,–,–,–,–
Cc1ccc2c(c1)/C(=C/c1c[nH]c3ccccc13)C(=O)N2Cc1ccccc1 [Y3],–,–,> 76.92,12.69,–,did not cause necrosis,increase in apoptosis at IC50 values was statistically significant,5.32,5.40,> 11.49,1.89,5.78
O=C1/C(=C\c2c[nH]c3ccccc23)c2cc(OC(F)(F)F)ccc2N1Cc1ccccc1 [Y4],< 5.00,< 5.00,> 17.54 and > 18.87,4.28 and 4.60,5.61,did not cause necrosis,increase in apoptosis at IC50 values was statistically significant,–,–,–,–,–
Cc1ccc2c(c1)/C(=C/c1c[nH]c3ccccc13)C(=O)N2Cc1cccc(F)c1 [Y8],5.24,5.06,> 18.52,4.07,5.66,did not cause necrosis,increase in apoptosis at IC50 values was statistically significant,–,–,> 10.75,2.36,–
